Experimental data taken from patent publication US20230105103A1, “THERAPEUTIC MOLECULES FOR COMBATING SEPSIS” (CENTRE FOR CELLULAR AND MOLECULAR PLATFORMS, priority 2019, published 2023).

Legend:
[1] = system: CLP mice; experiment: Plasma cytokine levels in CLP mice (Bio-Plex multiplex assay); type: in vivo; details: for plasma IL-6 levels: CLP mice, 6 hours post intervention, versus untreated, FIG. 5C; for levels of IL-1b over time / levels of MCP-1 over time / levels of TNF-α over time: individual CLP mice, 6 hours versus 48 hours post treatment
Method: (§1) The CLP study with 7-9 week old C57BL/6 or BALB/c males was conducted, at animal house facility at TheraIndx Lifesciences Pvt. Ltd. (Bangalore, India) and Institute of Life Sciences (Bhubaneswar, India) respectively, in accordance with ethical practices laid down in the CPCSEA guidelines for animal care and use (CPCSEA, 2003). The Institutional Animals Ethics Committee (IAEC) of the test facility approved the studies. The CLP was performed as described before (Rittirsch et al., 2009; Toscano et al., 2011). Sham control mice had undergone surgery with ceacal manipulations without ligation and puncture. About 500 μl saline was administered subcutaneously immediately after surgery. Tramadol (about 20 mg/kg) was injected subcutaneously for post-operative analgesia. BALB/c mice were injected with single IP close of about 500 μg GA132 (GA is the internal code which has been used by the inventors of the present invention) while C57BL/6 mice received single IP dose of about 300 μg or about 700 μg GA132 6 hours post CLP. A separate group of C57BL/6 mice received single IP dose of about 250 μg of 6-mer, 7-mer or 8-mer at either 6 hour or 24 hour post CLP. All groups except the CLP alone (control) received a single dose of standard antibiotics (amoxicillin and clavulanate) 6 hour post CLP. Control group was injected with saline solution. Total of 92 C57BL/6 and 18 BALB/c mice were used in the study.
The Mutiplex immunoassay for Human and Mouse IL-1b, IL-6, IL-10, TNF-α and MCP-1 were purchased from Bio-Rad. For human cytokines, 1×10^6 PBMCs were seeded in 24 well plate a day before and treated with 100 ng/ml LPS or 50 μg/ml GA132 for 24 hours. The culture supernatant from three independent biological replicates was collected and used for the assay without dilution. For mice cytokines, the plasma samples from mice were collected 6 or 48 hours post treatment and diluted in PBS (Phosphate Buffered Saline) in 1:2 before assay. The assay was performed as per manufacturers' method and the beads were read and analyzed in Bio-Plex® MAGRIX™ Multiplex Reader (Bio-Rad) (https://www.bio-rad.com/webroot/web/pdg/lsr/literature/10014905.pdf).

[2] = system: CLP model of sepsis in mice; experiment: CLP study, survival of mice treated with chito-oligomers; type: in vivo; details: C57BL/6 CLP mice; for protection over 'Antibiotic-alone' group: intervention at 6 hours, 7 days; for survival compared to 'Antibiotic alone' group: single dose at 24 hours post-surgery; for survival over 7 days: intervention at 6 hours post-surgery, about 250 μg single IP dose with antibiotics, FIG. 5A
Method: as §1, with “Sham control mice had undergone surgery with ceacal manipulations without ligation and puncture.” left out, “BALB/c mice were injected with single IP close of about 500 μg GA132 (GA is the internal code which has been used by the inventors of the present invention) while C57BL/6 mice received single IP dose of about 300 μg or about 700 μg GA132 6 hours post CLP.” left out
Experimental data were analyzed using GraphPad Prism 8 (GraphPad Software, Inc.). Kruskal-Wallis test and one way ANOVA test was used for analysis of cytokines and reporter assay values. Log-rank (Mantel-Cox) test was utilized for survival analysis. P-values, P<0.05 were considered statistically significant and are denoted by […] if calculated P-values were lower than P=0.05.

Row | Compound | plasma IL-6 levels [1] | levels of IL-1b over time [1] | levels of MCP-1 over time [1] | levels of TNF-α over time [1] | protection over 'Antibiotic-alone' group [2] | survival compared to 'Antibiotic alone' group [2] | survival over 7 days [2] [%]
1 | CC(=O)N[C@H]1[C@H](O[C@H]2[C@H](O)[C@@H](NC(C)=O)[C@H](O[C@H]3[C@H](O)[C@@H](NC(C)=O)C(O)O[C@@H]3CO)O[C@@H]2CO)O[C@H](CO)[C@@H](O[C@@H]2O[C@H](CO)[C@@H](O[C@@H]3O[C@H](CO)[C@@H](O[C@@H]4O[C@H](CO)[C@@H](O)[C@H](O)[C@H]4NC(C)=O)[C@H](O)[C@H]3NC(C)=O)[C@H](O)[C@H]2NC(C)=O)[C@@H]1O (some centres unmarked) [6-mer, Hexa-N-acetyl Chitohexaose] | significant decrease | no effect | no effect | no effect | no additional protection | no change | 
2 | CC(=O)N[C@H]1[C@H](O[C@H]2[C@H](O)[C@@H](NC(C)=O)[C@H](O[C@H]3[C@H](O)[C@@H](NC(C)=O)[C@H](O[C@H]4[C@H](O)[C@@H](NC(C)=O)C(O)O[C@@H]4CO)O[C@@H]3CO)O[C@@H]2CO)O[C@H](CO)[C@@H](O[C@@H]2O[C@H](CO)[C@@H](O[C@@H]3O[C@H](CO)[C@@H](O[C@@H]4O[C@H](CO)[C@@H](O[C@@H]5O[C@H](CO)[C@@H](O)[C@H](O)[C@H]5NC(C)=O)[C@H](O)[C@H]4NC(C)=O)[C@H](O)[C@H]3NC(C)=O)[C@H](O)[C@H]2NC(C)=O)[C@@H]1O (some centres unmarked) [8-mer, Octa-N-acetyl Chitooctaose] | reduced in 8-mer treated mice when compare to untreated mice but the difference was not found to be significant | increase | increase | increase | no additional protection | no change | 40
3 | amoxicillin and clavulanate [Antibiotic—alone, reference compound] |  |  |  |  |  |  | 60
